Test results taken from PMC11203657, “Glyphosate-Induced Phosphonatase Operons in Soil Bacteria of the Genus Achromobacter” (International Journal of Molecular Sciences, 2024).
Like-named read-outs stand apart in the source and are kept apart here.

Key:
PhnX16 [1] = target: T1, PhnX16 (Achromobacter aegrifaciens, UniProt A0ABU2D8D6); test: activation kinetics, ADH/NADH-coupled PAA hydrolysis, vector method; format: biochemical; details: substrate PAA 0.1-5 mM, pH 7.5, 10 mM MgCl2, 25 °C; Ka is an activation constant; competitive-type activator
T1 construct: gene phnX; native, purified from wild-type strain, untagged; subunit ~31 kDa, homodimer ~60-65 kDa
T1 sequence (A0ABU2D8D6 4-276): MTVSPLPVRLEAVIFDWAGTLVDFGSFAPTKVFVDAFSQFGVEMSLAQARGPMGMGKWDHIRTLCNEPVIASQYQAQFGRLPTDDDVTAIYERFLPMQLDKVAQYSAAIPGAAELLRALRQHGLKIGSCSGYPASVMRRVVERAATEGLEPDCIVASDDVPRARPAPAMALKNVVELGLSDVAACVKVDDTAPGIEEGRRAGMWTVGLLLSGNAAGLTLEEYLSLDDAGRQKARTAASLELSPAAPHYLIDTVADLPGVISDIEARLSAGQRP
Description: activation kinetics, ADH/NADH-coupled PAA hydrolysis, vector method on PhnX16

PhnX19-II = target: T2, PhnX19-II (Achromobacter insolitus, UniProt Z9I4E4M620); test: inhibition kinetics, ADH/NADH-coupled PAA hydrolysis, vector method; format: biochemical; details: substrate PAA 0.1-5 mM, pH 7.5, 10 mM MgCl2, 25 °C
T2 construct: native, purified from wild-type strain, untagged; homodimer; MALDI match to OAD13647.1
T2 sequence (Z9I4E4M620 1-273): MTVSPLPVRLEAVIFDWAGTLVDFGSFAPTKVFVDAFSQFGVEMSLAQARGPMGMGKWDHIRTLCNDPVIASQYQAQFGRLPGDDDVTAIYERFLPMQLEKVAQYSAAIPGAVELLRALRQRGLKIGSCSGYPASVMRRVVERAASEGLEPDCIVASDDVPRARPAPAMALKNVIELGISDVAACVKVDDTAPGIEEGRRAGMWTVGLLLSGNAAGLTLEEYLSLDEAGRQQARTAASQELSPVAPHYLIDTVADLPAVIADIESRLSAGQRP
Description: inhibition kinetics, ADH/NADH-coupled PAA hydrolysis, vector method on PhnX19-II

PhnX19-I = target: T3, PhnX19-I (Achromobacter insolitus, UniProt Z9I4E4M620); test: as above; format: biochemical; details: substrate PAA 0.1-5 mM, pH 7.5, 10 mM MgCl2, 25 °C
T3 construct: native, purified from wild-type strain, untagged; homodimer; MALDI match to OAD13647.1
T3 sequence (Z9I4E4M620 1-273): T2 sequence (Z9I4E4M620 1-273)
Description: inhibition kinetics, ADH/NADH-coupled PAA hydrolysis, vector method on PhnX19-I

PhnX16 [2] = target: T1, PhnX16; test: as above; format: biochemical
Description: inhibition kinetics, ADH/NADH-coupled PAA hydrolysis, vector method on PhnX16

purified protein = substrate: O=CCP(=O)(O)O; test: purified protein; format: biochemical, Achromobacter aegrifaciens; details: pH 7.5, 50 mM Tris-HCl, 10 mM MgCl2, 0.1 mM DTT, 25 °C
[3] = noncompetitive in table, uncompetitive in text, read-out: Effectors / 2,4-DNPA
[4] = uncompetitive inhibitor, read-out: Effectors / GP
[5] = competitive inhibitor, read-out: Effectors / 2-AEP
[6] = noncompetitive inhibitor, read-out: Effectors / BPA

## NCP(=O)(O)O [AMPA, aminomethylphosphonic acid]
PhnX16 [1]
  Ka (activation constant): 43.5 mM

## CC(=O)Oc1ccc([N+](=O)[O-])cc1[N+](=O)[O-] [2,4-DNPA, 2,4-dinitrophenyl acetate]
PhnX19-II; [3]
  Ki: 760 µM
PhnX19-I; [3]
  Ki: 730 µM

## O=C(O)CNCP(=O)(O)O [GP, N-phosphonomethylglycine]
PhnX16 [2]; read-out: Effectors / GP
  Ki: 11600 µM
PhnX19-II; [4]
  Ki: 5400 µM
PhnX19-I; [4]
  Ki: 4000 µM

## NCCP(=O)(O)O [compound 1, 2-aminoethylphosphonic acid]
PhnX16 [1]
  Effectors / 2-AEP: 21 mM
PhnX19-II; [5]
  Ki: 2480 µM
PhnX19-I; [5]
  Ki: 2200 µM

## CCCCP(=O)(O)O [BPA, butylphosphonic acid]
PhnX16 [2]
  Ki: 750 µM
PhnX19-II; [6]
  Ki: 300 µM
PhnX19-I; [6]
  Ki: 390 µM

B1: PhnX16 (Achromobacter aegrifaciens) (protein)
chain: T1 sequence (A0ABU2D8D6 4-276)
notes: native, purified from wild-type strain, untagged; subunit ~31 kDa, homodimer ~60-65 kDa
Purified protein
  Km: 889 ± 138 µM
  Vmax: 1.2 µmol/min/mg
  kcat: 0.6 ± 0.1 s⁻¹
  kcat/Km: 670 M⁻¹ s⁻¹

B2: PhnX16R (Achromobacter aegrifaciens) (protein)
chain: T1 sequence (A0ABU2D8D6 4-276)
notes: recombinant full length, C-terminal His6 tag kept, pET-22b without pelB, E. coli BL21(DE3); homodimer
Purified protein
  Km: 641 ± 23 µM
  Vmax: 1.12 µmol/min/mg
  kcat: 0.56 ± 0.05 s⁻¹
  kcat/Km: 875 M⁻¹ s⁻¹
